In ChEMBL document CHEMBL1201862, “PubChem BioAssay data set” (2004):
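Five concentrations, 48 hours, 96-well plates. Abbreviation: GI50, concentration required for 50% inhibition of growth.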 Activity calls are given as the source filed them. No stated cut-off is given here; in the data, active = GI50 up to about 1.1 µM and inactive = higher.

Columns and labels:
Experiment in all cases: NCI tumour cell line growth inhibition, 48 h
786-0 = test system: 786-0
A549 = test system: A549
CCRF-CEM = test system: CCRF-CEM
DU-145 = test system: DU-145
EKVX = test system: EKVX
HT-29 = test system: HT-29
K562 = test system: K562
KM12 = test system: KM12
LOX IMVI = test system: LOX IMVI
NCI-H226 = test system: NCI-H226
NCI-H460 = test system: NCI-H460
OVCAR-5 = test system: OVCAR-5
RXF 393 = test system: RXF 393
SF-295 = test system: SF-295
SF-539 = test system: SF-539
SK-MEL-2 = test system: SK-MEL-2
SNB-19 = test system: SNB-19
T47D = test system: T47D
TK-10 = test system: TK-10
UO-31 = test system: UO-31

## Cn1c2ccc(C3=NCCN3)cc2c2cc(C3=NCCN3)ccc21
786-0
  GI50: 38.7 µM (inactive)
A549
  GI50: 46.1 µM (inactive)
CCRF-CEM
  GI50: < 0.01 µM (active)
DU-145
  GI50: 26.4 µM (inactive)
EKVX
  GI50: 17 µM (inactive)
HT-29
  GI50: 7.82 µM (inactive)
K562
  GI50: 26.4 µM (inactive)
KM12
  GI50: 1.56 µM (inactive)
LOX IMVI
  GI50: 49.4 µM (inactive)
NCI-H226
  GI50: 30.1 µM (inactive)
NCI-H460
  GI50: 5.38 µM (inactive)
OVCAR-5
  GI50: 38.4 µM (inactive)
RXF 393
  GI50: 34.3 µM (inactive)
SF-295
  GI50: 42.8 µM (inactive)
SF-539
  GI50: 29.4 µM (inactive)
SK-MEL-2
  GI50: 33.5 µM (inactive)
SNB-19
  GI50: 42.8 µM (inactive)
T47D
  GI50: 7.89 µM (inactive)
TK-10
  GI50: 60.3 µM (inactive)
UO-31
  GI50: 56.1 µM (inactive)

## C/C(=N\NC(=S)N(C)CCN(C)C(=S)N/N=C(\C)c1ccccn1)c1ccccn1
786-0
  GI50: > 100 µM (inactive)
A549
  GI50: 2.37 µM (inactive)
CCRF-CEM
  GI50: 0.428 µM (active)
DU-145
  GI50: 1.11 µM (active)
EKVX
  GI50: 1.73 µM (inactive)
HT-29
  GI50: 0.224 µM (active)
K562
  GI50: 1.55 µM (inactive)
KM12
  GI50: 0.435 µM (active)
LOX IMVI
  GI50: 0.811 µM (active)
NCI-H226
  GI50: 0.316 µM (active)
NCI-H460
  GI50: 0.509 µM (active)
OVCAR-5
  GI50: 5.9 µM (inactive)
RXF 393
  GI50: 0.0843 µM (active)
SF-295
  GI50: 0.805 µM (active)
SF-539
  GI50: 1.66 µM (inactive)
SK-MEL-2
  GI50: 10.1 µM (inactive)
SNB-19
  GI50: 3.04 µM (inactive)
T47D
  GI50: 1.84 µM (inactive)
TK-10
  GI50: 0.47 µM (active)
UO-31
  GI50: 0.791 µM (active)

## CC(=O)OCC1OC(n2cc(F)c(=O)[nH]c2=O)C(OC(C)=O)C1OC(C)=O (stereo not given)
786-0
  GI50: 12.2 µM (inactive)
A549
  GI50: 16.7 µM (inactive)
CCRF-CEM
  GI50: 6 µM (inactive)
DU-145
  GI50: 70.5 µM (inactive)
EKVX
  GI50: > 75.2 µM (inactive)
HT-29
  GI50: 27.9 µM (inactive)
K562
  GI50: 9.27 µM (inactive)
KM12
  GI50: 8.41 µM (inactive)
LOX IMVI
  GI50: 5.9 µM (inactive)
NCI-H226
  GI50: 59.8 µM (inactive)
NCI-H460
  GI50: 5.37 µM (inactive)
OVCAR-5
  GI50: 33.8 µM (inactive)
RXF 393
  GI50: 45.9 µM (inactive)
SF-295
  GI50: 52.7 µM (inactive)
SF-539
  GI50: 7.55 µM (inactive)
SK-MEL-2
  GI50: 28.2 µM (inactive)
SNB-19
  GI50: 30.8 µM (inactive)
T47D
  GI50: 19.2 µM (inactive)
TK-10
  GI50: > 100 µM (inactive)
UO-31
  GI50: 11.8 µM (inactive)

## COc1cc2c(cc1OCCCC(=O)Nc1cc(C(=O)Nc3cc(C(=O)Nc4cc(C(=O)NCCCN(C)C)n(C)n4)n(C)c3)n(C)c1)N=CC1CCCN1C2=O (stereo not given)
786-0
  GI50: 22.3 µM (inactive)
A549
  GI50: 49.3 µM (inactive)
CCRF-CEM
  GI50: 4.31 µM (inactive)
DU-145
  GI50: 32.1 µM (inactive)
EKVX
  GI50: 74 µM (inactive)
HT-29
  GI50: 20.3 µM (inactive)
K562
  GI50: 5.2 µM (inactive)
KM12
  GI50: 24 µM (inactive)
LOX IMVI
  GI50: 18.7 µM (inactive)
NCI-H226
  GI50: 25.1 µM (inactive)
NCI-H460
  GI50: 25.9 µM (inactive)
OVCAR-5
  GI50: 40 µM (inactive)
RXF 393
  GI50: 19.8 µM (inactive)
SF-295
  GI50: 31.4 µM (inactive)
SF-539
  GI50: 23.1 µM (inactive)
SK-MEL-2
  GI50: 23.1 µM (inactive)
SNB-19
  GI50: 22.5 µM (inactive)
T47D
  GI50: 48.5 µM (inactive)
TK-10
  GI50: 21 µM (inactive)
UO-31
  GI50: 22.2 µM (inactive)
